Data as given in patent US20260216137A1, “COMPOSITION FOR PREVENTING OR TREATING INFLAMMATORY SKIN DISEASES,CONTAINING 1H-PYRAZOLE-3-AMIDE COMPOUND DERIVATIVE” (AJOU UNIVERSITY INDUSTRY-ACADEMIC COOPERATION FOUNDATION, priority 2023, published 2026).

Experiments:
Type in all cases: in vivo
psoriasis mouse model [1] = test: Psoriasis mouse model: skin thickness by hematoxylin/eosin staining; details: Aldara cream psoriasis mice; intraperitoneal daily, Compound 1 20 mg/kg, Compound 2 10 mg/kg; FIG. 3
Description: (§1) The hair on the backs of 7-week-old mice was removed, and then 62.5 mg of Aldara cream was applied daily for 4 days. 1% DMSO and 5% kolliphor in PBS were mixed to be injected into the vehicle intraperitoneally daily. 20 mg/kg of Compound 1, 10 mg/kg of Compound 2, and 10 mg/kg of MTx were prepared in body weight×[…], which was injected intraperitoneally daily. After injection, the mice were left for 30 minutes for sufficient suppression of cannabinoid receptor 1, applied with Aldara cream, and then sacrificed on day 5 from day 1 at which the Aldara cream was first applied, and skin tissues were made into paraffin blocks. These were evenly cut into 4 μm thick pieces, and immunochemical staining was performed.
The slides were placed in a 60° C. oven for 1 hour, rinsed with xylene solution for 5 minutes, 100% EtOH for 5 minutes, 70% EtOH for 5 minutes, distilled water, and PBS, and then immersed in hematoxylin for 10 seconds and eosin for 3 seconds. Afterwards, they were rinsed with 70% EtOH and 100% EtOH, immersed in xylene for 20 seconds, sprayed with mounting solution, and covered with a cover glass. Each section of the skin tissue was photographed using a Leica microscope and then quantified by setting three sections per tissue as the average.

IL-17A = test: Contact dermatitis mouse model: IL-17A expression by immunohistochemical staining; details: oxazolone contact dermatitis mice; intraperitoneal daily, Compound 2 20 mg/kg, Compound 1 10 mg/kg; FIG. 9
Description: (§2) For immunohistochemical staining, the slides were placed in a 60° C. oven for 1 hour, rinsed with xylene solution for 5 minutes, 100% EtOH for 5 minutes, 70% EtOH for 5 minutes, distilled water, and PBS, then immersed in citrate buffer, placed in a 100° C. oven for 30 minutes, and slowly cooled at room temperature for 45 minutes. After rinsing with distilled water, the slides were soaked in PBS for 5 minutes, sprayed with 0.25% TritonX-100, and left for 10 minutes to disrupt the cell membrane and allow the antibodies to penetrate. After rinsing with 0.1% Tween 20 in PBS (hereinafter referred to as PBST), hydrogen peroxide block buffer (abcam59717) was sprayed and left for 10 minutes. […]
(§3) After removing hair from the ears of 7-week-old mice, on the day after hair removal (day 1), oxazolone (4-ethoxymethylene-2-phenyl-2-oxazolin-5-one, cat #E0753-1G, sigma-Aldrich) was mixed in acetone and olive oil in a concentration of 2%, which was then applied to the inner and outer sides of the ears by 5 μl each. […] Intraperitoneal injection was conducted daily by 20 mg/kg for Compound 2 and 10 mg/kg for Compound 1 with a 30 interval for sufficient suppression of cannabinoid receptor 1 after the injection, and then the size of the ears was measured, followed by application of oxazolone (on days 1 and 6). […]

TNF-α = test: Psoriasis mouse model: TNF-α expression by immunohistochemical staining; details: Aldara cream psoriasis mice; intraperitoneal daily, Compound 1 20 mg/kg, Compound 2 10 mg/kg; FIG. 4
Description: as §1
For immunohistochemical staining, the slides were placed in a 60° C. oven for 1 hour, rinsed with xylene solution for 5 minutes, 100% EtOH for 5 minutes, 70% EtOH for 5 minutes, distilled water, and PBS, then immersed in citrate buffer, placed in a 100° C. oven for 30 minutes, and slowly cooled at room temperature for 45 minutes. After rinsing with distilled water, the slides were soaked in PBS for 5 minutes, sprayed with 0.25% TritonX-100, and left for 10 minutes to disrupt the cell membrane and allow the antibodies to penetrate. […]
(§4) The signals of TNF-α and IL-1B, stained brown, were quantified through immunohistochemical staining.

psoriasis mouse model [2] = test: Psoriasis mouse model (Aldara cream): PASI score and spleen weight; details: Aldara cream psoriasis mice; intraperitoneal daily, Compound 1 20 mg/kg, Compound 2 10 mg/kg; FIG. 2
Description: as §1

[3] = tested on: contact dermatitis mouse model; test: Contact dermatitis mouse model: ear skin thickness by hematoxylin/eosin staining; details: oxazolone contact dermatitis mice; intraperitoneal daily, Compound 2 20 mg/kg, Compound 1 10 mg/kg; FIG. 7
Description: After removing hair from the ears of 7-week-old mice, on the day after hair removal (day 1), oxazolone (4-ethoxymethylene-2-phenyl-2-oxazolin-5-one, cat #E0753-1G, sigma-Aldrich) was mixed in acetone and olive oil in a concentration of 2%, which was then applied to the inner and outer sides of the ears by 5 μl each. 1% DMSO and 5% kolliphor in PBS were mixed to be injected into the vehicle intraperitoneally daily. Intraperitoneal injection was conducted daily by 20 mg/kg for Compound 2 and 10 mg/kg for Compound 1 with a 30 interval for sufficient suppression of cannabinoid receptor 1 after the injection, and then the size of the ears was measured, followed by application of oxazolone (on days 1 and 6). On day 6, 1% oxazolone was prepared and applied to the inner and outer side of the ears by 5 μl each, and on day 7, the mice were sacrificed, with the ears formed into paraffin blocks and then cut into 4 μm thick pieces to be placed on slides. […]
The slides were placed in a 60° C. oven for 1 hour, rinsed with xylene solution for 5 minutes, 100% EtOH for 5 minutes, 70% EtOH for 5 minutes, distilled water, and PBS, and then immersed in hematoxylin for 10 seconds and eosin for 3 seconds. […] Each section of skin tissue was photographed using a Leica microscope and then quantified by setting three sections per tissue as the average.

IL-1ß = test: Psoriasis mouse model: IL-1β expression by immunohistochemical staining; details: Compound 1 20 mg/kg; for expression level of IL-1ß in the epidermis compared to vehicle group: Aldara cream psoriasis mice, intraperitoneal daily, Compound 2 10 mg/kg, FIG. 5
Description: as §1
For immunohistochemical staining, the slides were placed in a 60° C. oven for 1 hour, rinsed with xylene solution for 5 minutes, 100% EtOH for 5 minutes, 70% EtOH for 5 minutes, distilled water, and PBS, then immersed in citrate buffer, placed in a 100° C. oven for 30 minutes, and slowly cooled at room temperature for 45 minutes. After rinsing with distilled water, the slides were soaked in PBS for 5 minutes, sprayed with 0.25% TritonX-100, and left for 10 minutes to disrupt the cell membrane and allow the antibodies to penetrate. After rinsing with 0.1% Tween 20 in PBS (hereinafter referred to as PBST), hydrogen peroxide block buffer (abcam59717) was sprayed and left for 10 minutes. Afterwards, after rinsing with PBST, the slides were sprayed with 150 μl of normal blocking serum (VectastatinABC kit, PK-4001) mixed in 10 ml of PBS. The primary antibody was mixed with R.T.U animal free block and diluent (SP-5035) in 1:500, spread on the slides, and reacted in a refrigerator at 4° C. for 14 hours. After rinsing with PBST, the secondary antibody was applied for 1 hour and then HRP (VectastatinABC reagent) for 30 minutes. […]
as §4

[4] = tested on: contact dermatitis mouse model; test: Contact dermatitis mouse model (oxazolone on ears): symptoms of dermatitis; details: oxazolone contact dermatitis mice; intraperitoneal daily, Compound 2 20 mg/kg, Compound 1 10 mg/kg; FIG. 6
Description: After removing hair from the ears of 7-week-old mice, on the day after hair removal (day 1), oxazolone (4-ethoxymethylene-2-phenyl-2-oxazolin-5-one, cat #E0753-1G, sigma-Aldrich) was mixed in acetone and olive oil in a concentration of 2%, which was then applied to the inner and outer sides of the ears by 5 μl each. 1% DMSO and 5% kolliphor in PBS were mixed to be injected into the vehicle intraperitoneally daily. Intraperitoneal injection was conducted daily by 20 mg/kg for Compound 2 and 10 mg/kg for Compound 1 with a 30 interval for sufficient suppression of cannabinoid receptor 1 after the injection, and then the size of the ears was measured, followed by application of oxazolone (on days 1 and 6). On day 6, 1% oxazolone was prepared and applied to the inner and outer side of the ears by 5 μl each, and on day 7, the mice were sacrificed, with the ears formed into paraffin blocks and then cut into 4 μm thick pieces to be placed on slides.
The 2% oxazolone used on day 1 was finally prepared in a volume of 800 μl for 20 mice, 16 mg of oxazolone was first dissolved in 160 μl of olive oil, then 640 μl of acetone was additionally mixed, and 10 μl of the mixture was applied on both ears, 5 μl for the front and 5 μl for the back per ear. […]

IL-1B = test: Contact dermatitis mouse model: IL-1β expression by immunohistochemical staining; details: oxazolone contact dermatitis mice; intraperitoneal daily, Compound 2 20 mg/kg, Compound 1 10 mg/kg; FIG. 8
Description: as §2, §3

Row | SMILES | thickness of the epidermis compared to vehicle group (psoriasis mouse model [1]) | expression level of IL-17A compared to vehicle group (IL-17A) | expression level of TNF-α in the epidermis compared to vehicle group (TNF-α) | PASI score compared to vehicle group (psoriasis mouse model [2]) | spleen weight compared to vehicle group (psoriasis mouse model [2]) | thickness of the ear skin compared to vehicle group [3] | expression level of IL-1ß in the epidermis compared to vehicle group (IL-1ß) | inhibitory effect on inflammatory factor expression, Compound 1 versus Compound 2 (IL-1ß; psoriasis mice, comparison stated after the TNF-α and IL-1ß results, Compound 2 10 mg/kg intraperitoneal) | symptoms of contact dermatitis compared to vehicle group [4] | expression level of IL-1B in the epidermis compared to vehicle group (IL-1B)
1 | Cc1c(C(=O)C(=O)NCCO)nn(-c2ccc(Cl)cc2Cl)c1-c1ccc(Cl)cc1 [Compound 1, 2-(5-(4-chlorophenyl)-1-(2,4-dichlorophenyl)-4-methyl-1H-pyrazol-3-yl)-N-(2-hydroxyethyl)-2-oxoacetamide] | significantly reduced | significantly reduced | significantly reduced | lower | decrease | significantly reduced | significantly reduced | higher than that of Compound 2 | reduced | significantly reduced
2 | Cc1c(/C=C/C(=O)NCc2cccc(Cl)c2)nn(-c2ccc(Cl)cc2Cl)c1-c1ccc(Cl)cc1 [Compound 2, (E)-N-(3-chlorobenzyl)-3-(5-(4-chlorophenyl)-1-(2,4-dichlorophenyl)-4-methyl-1H-pyrazol-3-yl) acrylamide] | significantly reduced | significantly reduced | significantly reduced | lower | decrease | significantly reduced | significantly reduced | – | reduced | significantly reduced
